Laboratory results reported in patent US7829526B2, “Cardioinhibitory/antihypertensive novel endogenous physiologically active peptide” (Japan Science and Technology Agency, priority 2004, dated 2010).

Key:
SD rats = conditions: cited from earlier work; for hypotensive and bradycardiac effects: 1 min after intravenous administration, SD rats under pentobarbital anesthesia; for dose dependence of hypotensive and bradycardiac effects: salusin-α 1-10 nmol/kg, salusin-β 0.1-1 nmol/kg
[1] = tested on: isolated rat aortic preparation; conditions: intact and endothelium-detached preparations, unconstricted or constricted with phenylephrine; cited from earlier work
[2] = Cardioinhibitory or hypotensive activity of deletion variants and homologue (method not described); conditions: variants of SEQ ID No: 2
intact-rats = assay: Effect of synthesized peptide on intact anesthetized rats (blood pressure, heart rate, aortic flow); type: in vivo, rat; conditions: for hypotensive effect: anesthetized SD rats, synthetic peptide 10 nmol/kg intravenously
Description: Meanwhile, a peptide of the present invention consisting of the amino acid sequence shown by SEQ ID No: 2 determined in Example 1, was synthesized with the use of a peptide synthesizer (Shimadzu, PSSM-8), and tested in the following experiment. SD rats weighing 400 to 525 g were used as test animals.
SD rats were anesthetized by intraperitoneal pentobarbital sodium (50 mg/kg), and a synthesized peptide was administered intravenously via a catheter placed in the […]. Heart rates and blood pressure were measured according to a method described previously (Nat Med 9: 1166-72, 2003) with the use of an electromagnetic flowmeter (MFV-1100, Nihon Koden). Further, a flowmeter was attached to the abdominal aorta, and aortic flow was measured according to the above method described previously. Synthetic peptides (10 nmol/kg) were administered intravenously over a period of 15 seconds or more, and systolic pressure (SP), diastolic pressure (DP) mean aortic pressure (MAP), heart rate (HR) were measured. A hypotensive effect of a synthetic peptide of the present invention was observed.

[3] = tested on: isolated, perfused rat hearts; assay: Isolated heart working model (isolated perfused rat heart); conditions: for cardiac contractility (inotropism): rat hearts, direct action on heart
Description: Isolated heart working model was used for estimating direct effect on cardiac muscle, according to a method described previously (Nat Med 9:[…], 2003). A heart isolated from a rat was set on an isolated heart perfusion apparatus (Primetech Corporation, IPH-W2) which was perfused with a Krebs Henseleit Buffer at 37° C., and stabilized. Subsequently, synthetic peptides were administered (10^−8 mol/l). Then, HR, SP, DP, MAP and aortic flow (AF) were measured over a period of 15 min. Coronary flow (CF) was measured by collecting coronary sinus effluent before and at 5 and 10 min after administering the peptide agent. Based on the obtained data, cardiac output (CO) was calculated by adding AF and CF, whereas stroke volume (SV) was obtained by dividing CO by HR, and then normalized by the heart volume of each rat.

[4] = intravenous administration into anesthetized rats

Row | Substance | hypotensive and bradycardiac effects (SD rats) | hypotensive effects after pretreatment with NO synthase inhibitor L-NAME (SD rats) | dose dependence of hypotensive and bradycardiac effects (SD rats) | direct effect on isolated rat aorta [1] | cardioinhibitory activity or hypotensive activity [2] | further results
1 | salusin-α: related peptide of 28 amino acids biosynthesized by processing of preprosalusin (SGALPPAPAAPRPALRAQRAGPAGPGAK; salusin-alpha) | rapid hypotensive and bradycardiac effects | not affected | dose-responsive | did not show any direct effect | – | –
2 | (2-13): SEQ ID No: 2 wherein 11 amino acids at C-terminal end and 1 amino acid at N-terminal end are deleted (IFIFISNTGGKQ; listed as Homo sapiens) | – | – | – | – | the activity is somewhat decreased | –
3 | AIFIFISNTGGKQINQVALEAWRS (listed as Homo sapiens) [peptide of the present invention, human-derived 24 amino acid peptide translated from TOR2A mRNA] | – | – | – | – | – | hypotensive effect (intact-rats; FIG. 1, listed as This peptide): significant hypotensive activity; hypotensive effect (intact-rats; FIG. 1, listed as synthetic peptide of the present invention): observed; aortic blood flow (intact-rats; [4]): reduced; heart rates (intact-rats; [4]): reduced; aortic pressure (intact-rats; intravenous administration into anesthetized rats, FIG. 1): marked lowering; negative inotropic and chronotropic effects (intact-rats; rank among endogenous peptides, FIG. 2): most potent endogenous peptide identified thus far; coronary flow ([3]; isolated rat heart, peptide 10^−8 mol/l, before and at 5 and 10 min, FIG. 2): lowering coronary flow; cardiac contractility (inotropism) [3]: potently reduce cardiac contractility; cardiac contractility (inotropism) ([3]; listed as This peptide): negative inotropism
4 | salusin-β: related peptide of 20 amino acids biosynthesized by processing of preprosalusin (AIFIFIRWLLKLGHHGRAPP; salusin-beta) | rapid hypotensive and bradycardiac effects | not affected | dose-responsive | did not show any direct effect | – | potency compared to salusin-α (SD rats; hypotensive and bradycardiac effects): approximately 10 fold
5 | (5-24): SEQ ID No: 2 wherein 4 amino acids at N terminal end are deleted (FISNTGGKQINQVALEAWRS; listed as Homo sapiens) | – | – | – | – | potent cardioinhibitory activity or hypotensive activity is maintained | –
6 | (1-20): SEQ ID No: 2 wherein 4 amino acids at C-terminal end are deleted (AIFIFISNTGGKQINQVALE; listed as Homo sapiens) | – | – | – | – | potent cardioinhibitory activity or hypotensive activity is maintained | –
